From patent US6727264B1 (Synaptic Pharmaceutical Corporation, priority 2001, dated 2004)
Like-named read-outs stand apart in the source and are kept apart here. Blank lines part the entries; values can stand above or below the molecule they belong to.

Assays:
[1] = target: T1, human Alpha-1a Adrenergic receptor (Homo sapiens, UniProt P35348); assay: Binding affinity at cloned human Alpha-1a Adrenergic receptor; settings: read-out: hALPHA-1a Ki
T1 construct: expressed in transfected cells
T1 sequence (P35348 1-466): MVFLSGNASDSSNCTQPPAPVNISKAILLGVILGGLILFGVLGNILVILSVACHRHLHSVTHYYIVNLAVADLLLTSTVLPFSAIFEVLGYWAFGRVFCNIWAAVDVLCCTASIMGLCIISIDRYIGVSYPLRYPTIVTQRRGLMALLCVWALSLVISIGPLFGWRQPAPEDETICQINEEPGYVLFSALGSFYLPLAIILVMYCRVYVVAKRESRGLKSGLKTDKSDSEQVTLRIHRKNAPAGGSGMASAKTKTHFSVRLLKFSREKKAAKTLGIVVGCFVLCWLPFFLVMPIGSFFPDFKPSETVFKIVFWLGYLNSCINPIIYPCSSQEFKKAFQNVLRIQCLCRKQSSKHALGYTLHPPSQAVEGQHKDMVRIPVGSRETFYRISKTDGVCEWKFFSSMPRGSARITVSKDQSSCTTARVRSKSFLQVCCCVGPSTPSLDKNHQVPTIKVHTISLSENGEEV

[2] = target: human Dopamine D2 receptor (Homo sapiens, UniProt P14416); assay: Binding affinity at cloned human Dopamine D2 receptor; settings: read-out: hD2 Ki
human Dopamine D2 receptor, sequence (P14416 whole entry): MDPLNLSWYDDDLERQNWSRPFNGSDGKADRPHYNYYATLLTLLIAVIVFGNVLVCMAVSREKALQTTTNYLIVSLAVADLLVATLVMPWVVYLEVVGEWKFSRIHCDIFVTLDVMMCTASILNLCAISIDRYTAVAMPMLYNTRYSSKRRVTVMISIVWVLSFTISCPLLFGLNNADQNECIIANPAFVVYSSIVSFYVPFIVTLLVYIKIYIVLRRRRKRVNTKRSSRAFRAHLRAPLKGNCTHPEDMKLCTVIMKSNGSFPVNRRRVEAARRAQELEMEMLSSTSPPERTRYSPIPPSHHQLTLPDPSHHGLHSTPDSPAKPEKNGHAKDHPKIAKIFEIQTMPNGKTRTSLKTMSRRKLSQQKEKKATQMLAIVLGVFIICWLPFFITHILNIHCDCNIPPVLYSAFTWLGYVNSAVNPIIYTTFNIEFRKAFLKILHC

[3] = target: T2, human Histamine H1 receptor (Homo sapiens, UniProt P35367); assay: Binding affinity at cloned human Histamine H1 receptor; settings: read-out: hH1 Ki
T2 construct: expressed in transfected cells
T2 sequence (P35367 whole entry): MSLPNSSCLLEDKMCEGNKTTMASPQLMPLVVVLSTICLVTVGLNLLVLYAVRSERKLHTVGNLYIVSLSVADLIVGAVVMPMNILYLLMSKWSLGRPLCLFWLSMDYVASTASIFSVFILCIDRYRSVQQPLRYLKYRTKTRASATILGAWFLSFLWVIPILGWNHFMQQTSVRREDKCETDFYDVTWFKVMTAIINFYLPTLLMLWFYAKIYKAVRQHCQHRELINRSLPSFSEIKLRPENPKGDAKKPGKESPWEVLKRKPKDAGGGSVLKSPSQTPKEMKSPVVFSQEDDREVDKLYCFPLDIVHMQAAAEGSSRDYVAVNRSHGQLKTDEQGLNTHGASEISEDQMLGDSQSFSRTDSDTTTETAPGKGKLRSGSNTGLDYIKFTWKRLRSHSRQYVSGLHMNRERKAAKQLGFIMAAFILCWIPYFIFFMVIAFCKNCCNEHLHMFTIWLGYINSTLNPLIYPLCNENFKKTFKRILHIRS

rat MCH-1 [4] = target: T3, rat MCH-1 (Rattus norvegicus, UniProt P97639); assay: Radioligand binding assay at cloned rat MCH1 receptor ([3H] Compound A); design: host or cells: Peak rapid 293 (Peakr293) cells, transient calcium phosphate transfection, membranes; settings: cloned rat MCH1 receptor, 0.08 nM [3H] Compound A, read-out: Ki (nM) rMCH1
T3 sequence (P97639 whole entry): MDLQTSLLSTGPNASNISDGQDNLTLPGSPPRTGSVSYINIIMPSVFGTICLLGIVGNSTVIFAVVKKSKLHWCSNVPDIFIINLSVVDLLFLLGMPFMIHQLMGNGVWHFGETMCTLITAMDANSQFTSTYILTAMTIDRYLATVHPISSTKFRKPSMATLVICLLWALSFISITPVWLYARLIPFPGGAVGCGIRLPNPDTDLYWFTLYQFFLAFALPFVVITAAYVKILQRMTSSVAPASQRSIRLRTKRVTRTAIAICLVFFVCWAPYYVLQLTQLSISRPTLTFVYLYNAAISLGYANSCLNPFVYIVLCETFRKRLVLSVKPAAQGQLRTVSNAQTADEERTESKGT

[5] = tested on: Female Sprague Dawley rats; assay: Distension-induced rhythmic contraction (DIRC) model of the micturition reflex; assay type: in vivo, rat; design: key: E: Produced a significant increase in contraction interval relative to pre-drug interval; settings: urethane-anesthetized female rats, i.v. or i.p.; vs pre-drug interval
Protocol: The effects of compounds on the micturition reflex were assessed in the “distension-induced rhythmic contraction” (DIRC), as described in previous publications (e.g. Maggi et al, 1987; Morikawa et al, 1992), and Continuous Slow Transvesicular Infusion (CSTI) models in rats. Female Sprague Dawley rats weighing approximately 300 g were anesthetized with subcutaneous urethane (1.2 g/kg). The trachea was cannulated with PE240 tubing to provide a clear airway throughout the experiment. A midline abdominal incision was made and the left and right ureters were isolated. The ureters were ligated distally (to prevent escape of fluids from the bladder) and cannulated proximally with PE10 tubing. The incision was closed using 4-0 silk sutures, leaving the PE10 lines routed to the exterior for the elimination of urine. The bladder was canulated via the transurethral route using PE50 tubing inserted 2.5 cm beyond the urethral opening. This cannula was secured to the tail using tape and connected to a pressure transducer. To prevent leakage from the bladder, the cannula was tied tightly to the exterior urethral opening using 4-0 silk. To initiate the micturition reflex, the bladder was first emptied by applying pressure to the lower abdomen, and then filled with normal saline in […] (maximum=2 ml) until spontaneous bladder contractions occurred (typically 20-40 mmHg at a rate of one contraction every 2 to 3 minutes. Once a regular rhythm was established, vehicle (saline) or Test Compounds were administered i.v. or i.p. to explore their effects on bladder activity. The 5-HT1A antagonist WAY-100635 was given as a positive control. Data were expressed as contraction interval (in seconds) before drug application (basal), or after the application of vehicle or test article.

Male Sprague Dawley rats = assay: Continuous Slow Transvesicular Infusion (CSTI) rat model; assay type: in vivo; design: key: F: Produced an increase in bladder capacity in rats relative to baseline capacity; settings: intragastric administration, vs baseline capacity
Protocol: The effects of compounds on the micturition reflex were assessed in the “distension-induced rhythmic contraction” (DIRC), as described in previous publications (e.g. Maggi et al, 1987; Morikawa et al, 1992), and Continuous Slow Transvesicular Infusion (CSTI) models in rats. Male Sprague Dawley rats weighing approximately 300 g were used for the study. Rats were anaesthetized with pentobarbitone sodium (50 mg/kg, i.p). Through a median abdominal incision, bladder was exposed and a polyethylene cannula (PE 50) was introduced into the bladder through a small cut on the dome of the bladder and the cannula was secured with a purse string suture. The other end of the cannula was exteriorized subcutaneously at the dorsal neck area. Similarly, another cannula (PE 50) was introduced into the stomach through a paramedian abdominal incision with the free end exteriorized subcutaneously to the neck region. The surgical wounds were closed with silk 4-0 suture and the animal was allowed to recover with appropriate post surgical care. On the following day, the animal was placed in a rat restrainer. The open end of the bladder-cannula was connected to a pressure transducer as well as infusion pump through a three-way stopcock. The bladder voiding cycles were initiated by continuous infusion of normal saline at the rate of 100 μl/min. The repetitive voiding contractions were recorded on a Power Lab on-line data acquisition software. After recording the basal voiding pattern for an hour, the test drug or vehicle was administered directly into stomach through the intragastric catheter and the voiding cycles were monitored for 5 hours. Micturition pressure and frequency were calculated before and after the treatment (at every 30 min interval) for each animal. Bladder capacity was calculated from the micturition frequency, based on the constant infusion of 100 ul/min. The effect of the test drug was expressed as a percentage of basal, pre-drug bladder capacity. WAY 100635 was used as positive control for comparison.

human MCH-1 = human MCH-1 (Homo sapiens, UniProt Q99705); settings: cited from earlier work
human MCH-1, sequence (Q99705 whole entry): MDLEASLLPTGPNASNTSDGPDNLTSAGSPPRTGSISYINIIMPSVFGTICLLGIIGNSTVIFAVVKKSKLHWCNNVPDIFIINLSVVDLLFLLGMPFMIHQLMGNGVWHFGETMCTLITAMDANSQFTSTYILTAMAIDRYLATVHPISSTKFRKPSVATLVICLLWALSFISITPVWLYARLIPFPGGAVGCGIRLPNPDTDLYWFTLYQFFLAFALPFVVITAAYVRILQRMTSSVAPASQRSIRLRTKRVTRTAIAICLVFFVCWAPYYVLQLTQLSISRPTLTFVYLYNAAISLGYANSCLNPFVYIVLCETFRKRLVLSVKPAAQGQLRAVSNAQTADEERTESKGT

[6] = tested on: food intake induced by the intracerebroventricular application of MCH; settings: in vivo; cited from earlier work
rat MCH-1 [7] = target: T3, rat MCH-1; settings: cited from earlier work
G4F-7 cells = settings: cited from earlier work

- Ki [2]: 34900 nM
Molecule: COC(CCN1CCC(c2cccc(NC(=O)C(C)C)c2)CC1)c1ccccc1 (stereo not drawn) [Example 37]

- Ki (rat MCH-1 [4]; Peakr293 cell membranes): 19.7 nM
Molecule: CC(C)C(=O)Nc1cccc(C2CCN(CCCCC(Oc3cc(C(F)(F)F)ccc3F)c3ccc(F)cc3)CC2)c1 (stereo not drawn) [Example 935]

- Ki (rat MCH-1 [4]; Peakr293 cell membranes): 28.4 nM
Molecule: CC(C)C(=O)Nc1cccc(C2CCN(CCCCC(Oc3ccc(Cl)cc3)c3ccc(F)cc3)CC2)c1 (stereo not drawn) [Example 937]

- Ki (rat MCH-1 [4]; Peakr293 cell membranes): 1.8 nM
Molecule: CC(C)C(=O)Nc1cccc(C2CCN(CCCCC(Oc3ccc(F)cc3)c3ccccc3)CC2)c1 (stereo not drawn) [Example 940]

- Ki (rat MCH-1 [4]; Peakr293 cell membranes): 15.2 nM
Molecule: CC(C)C(=O)Nc1cccc(C2CCN(CCCC(=O)c3ccc(F)cc3)CC2)c1 [Example 941]

- Ki (rat MCH-1 [4]; Peakr293 cell membranes): 188 nM
Molecule: CC(C)C(=O)Nc1cccc(C2CCN(CCCc3cc[nH]c3)CC2)c1 [Example 942]

- Ki (rat MCH-1 [4]; Peakr293 cell membranes): 102 nM
Molecule: CC(C)C(=O)Nc1cccc(C2CCN(CCCC(=O)c3ccc(C(C)C)cc3)CC2)c1 [Example 943]

- Ki (rat MCH-1 [4]; Peakr293 cell membranes): 38.8 nM
Molecule: COc1ccc(C(=O)CCCN2CCC(c3cccc(NC(=O)C(C)C)c3)CC2)cc1 [Example 944]

- Ki (rat MCH-1 [4]; Peakr293 cell membranes): 31.2 nM
Molecule: Cc1ccc(C(=O)CCCN2CCC(c3cccc(NC(=O)C(C)C)c3)CC2)cc1 [Example 945]

- Ki (rat MCH-1 [4]; Peakr293 cell membranes): 337 nM
Molecule: CC(C)C(=O)Nc1cccc(C2CCN(CCCC(=O)c3ccc(C(C)(C)C)cc3)CC2)c1 [Example 946]

- Ki (rat MCH-1 [4]; Peakr293 cell membranes): 4.3 nM
Molecule: CC(C)C(=O)Nc1cccc(C2CCN(CCCC(=O)c3ccc(Br)cc3)CC2)c1 [Example 947]

- Ki (rat MCH-1 [4]; Peakr293 cell membranes): 21.2 nM
Molecule: CC(C)C(=O)Nc1cccc(C2CCN(CCCC(=O)c3cccs3)CC2)c1 [Example 948]

The remaining lines, values behind:

Molecule: CC(C)C(=O)Nc1cccc(C2CCN(CCC(OC(=O)c3cccc4ccccc34)c3ccccc3)CC2)c1 (stereo in doubt) [Example 69, (1S)-3-{4-[3-(ISOBUTYRYLAMINO)PHENYL]-1-PIPERIDINYL}-1-PHENYLPROPYL 1-NAPHTHOATE]
- Ki [1]: 232 nM
- Ki [2]: 46.6 nM
- Ki [3]: > 50000 nM
- Ki (rat MCH-1 [4]; membranes from Peakr293 cells): 32.5 nM

Molecule: Cc1ccc(C(=O)CCCN2CCC(c3cccc(NC(=O)C(C)C)c3)CC2)cc1C [Example 2]
- DIRC (contraction interval) [5]: E
- CSTI (bladder capacity) (Male Sprague Dawley rats): F

Molecule: CC(C)C(=O)Nc1cccc(C2CCN(CCCC(=O)c3ccc(Cl)cc3)CC2)c1 [Example 10]
- DIRC (contraction interval) [5]: E
- CSTI (bladder capacity) (Male Sprague Dawley rats): F

Molecule: CC(=O)Nc1cccc(C2CCN(CCCNC(=O)N3C(=O)O[C@H](C)[C@@H]3c3ccc(F)c(F)c3)CC2)c1 [Example 75]
- Ki [1]: 2470 nM
- Ki [2]: 19000 nM
- Ki [3]: 2840 nM
- Ki (rat MCH-1 [4]; membranes from Peakr293 cells): 11.8 nM

Molecule: CC(C)C(=O)Nc1cccc(C2CCN(CC[C@H](Oc3ccc(-c4ccccc4)cc3)c3ccccc3)CC2)c1 [Example 78]
- Ki [3]: > 50000 nM

Molecule: COc1ccc2[nH]c(-c3ccccc3)c(CCCN3CCC(c4cccc(NC(=O)C(C)C)c4)CC3)c2c1 [Example 91]
- DIRC (contraction interval) [5]: E
- CSTI (bladder capacity) (Male Sprague Dawley rats): F

Molecule: CCn1c2ccccc2c2cc(CN3CCC(c4cccc(NC(=O)C(C)C)c4)CC3)ccc21 [Example 99]
- DIRC (contraction interval) [5]: E
- CSTI (bladder capacity) (Male Sprague Dawley rats): F

Molecule: Cc1onc(-c2c(Cl)cccc2Cl)c1C(=O)NCCCCCN1CCC(c2cccc(NC(=O)C(C)C)c2)CC1 [Example 106]
- DIRC (contraction interval) [5]: E
- CSTI (bladder capacity) (Male Sprague Dawley rats): F

Molecule: CC(=O)c1cccc(O[C@H](CCN2CCC(c3cccc(NC(=O)C(C)C)c3)CC2)c2ccccc2)c1 [Example 116]
- DIRC (contraction interval) [5]: E
- CSTI (bladder capacity) (Male Sprague Dawley rats): F

Molecule: CC(C)C(=O)Nc1cccc(C2CCN(CCCCC(Oc3cc(C(F)(F)F)ccc3F)c3ccc(Cl)cc3)CC2)c1 (stereo not drawn) [Example 934]
- Ki (rat MCH-1 [4]; Peakr293 cell membranes): 12.3 nM

Molecule: CC(C)C(=O)Nc1cccc(C2CCN(CCCCC(Oc3ccc(Br)cc3)c3ccc(Cl)cc3)CC2)c1 (stereo not drawn) [Example 936]
- Ki (rat MCH-1 [4]; Peakr293 cell membranes): 11.6 nM

Molecule: CC(=O)c1ccccc1OC(CCCCN1CCC(c2cccc(NC(=O)C(C)C)c2)CC1)c1ccccc1 (stereo not drawn) [Example 938]
- Ki (rat MCH-1 [4]; Peakr293 cell membranes): 609 nM

Molecule: CCOc1ccccc1OC(CCCCN1CCC(c2cccc(NC(=O)C(C)C)c2)CC1)c1ccccc1 (stereo not drawn) [Example 939]
- Ki (rat MCH-1 [4]; Peakr293 cell membranes): 62 nM

Molecule: CN(C)CC1CCc2cc(NC(=O)c3ccc(-c4ccc(F)cc4)cc3)ccc2C1 (stereo not drawn) [Example T-226296, T-226296]
- affinity for the MCH-1 receptor (human MCH-1): 5 to 9 nM
- food intake induced by intracerebroventricular MCH [6]: inhibit food intake
- affinity for the MCH-1 receptor (rat MCH-1 [7]): 5 to 9 nM

Molecule: [Phe^13, Tyr^19]-MCH
- Kd (G4F-7 cells; radioiodinated ligand, G4F-7 cells): 0.118 nM

Molecule: rat ANF
- Ki (G4F-7 cells; mouse melanoma cells, read-out: Ki (inhibition of [Phe13,Tyr19]-MCH binding)): 116 nM
